Active and inactive are the calls of the source.
Assays:
[1] = target: T1, Caspase-6 (Homo sapiens, UniProt P55212); test: inhibition of CASP6 peptide cleavage – biochemical, VEID-R110 fluorescence, cherry-pick, dose response (AID 720632)
T1 sequence (P55212 whole entry): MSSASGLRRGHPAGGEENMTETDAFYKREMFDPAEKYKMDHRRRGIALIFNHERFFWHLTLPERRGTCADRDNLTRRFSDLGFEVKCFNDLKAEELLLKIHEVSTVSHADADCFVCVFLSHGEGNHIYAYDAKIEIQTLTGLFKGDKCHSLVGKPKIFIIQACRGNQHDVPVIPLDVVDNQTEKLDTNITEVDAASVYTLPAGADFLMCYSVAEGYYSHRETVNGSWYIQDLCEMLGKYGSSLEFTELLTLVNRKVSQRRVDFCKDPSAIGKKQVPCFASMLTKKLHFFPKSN

[2] = target: T2, Mannose-6-phosphate isomerase (Homo sapiens, UniProt P34949); test: MPI inhibition at elevated mannose 6-phosphate – biochemical, fluorescence intensity, high mannose 6-phosphate, primary screen (AID 1220)
T2 sequence (P34949 whole entry): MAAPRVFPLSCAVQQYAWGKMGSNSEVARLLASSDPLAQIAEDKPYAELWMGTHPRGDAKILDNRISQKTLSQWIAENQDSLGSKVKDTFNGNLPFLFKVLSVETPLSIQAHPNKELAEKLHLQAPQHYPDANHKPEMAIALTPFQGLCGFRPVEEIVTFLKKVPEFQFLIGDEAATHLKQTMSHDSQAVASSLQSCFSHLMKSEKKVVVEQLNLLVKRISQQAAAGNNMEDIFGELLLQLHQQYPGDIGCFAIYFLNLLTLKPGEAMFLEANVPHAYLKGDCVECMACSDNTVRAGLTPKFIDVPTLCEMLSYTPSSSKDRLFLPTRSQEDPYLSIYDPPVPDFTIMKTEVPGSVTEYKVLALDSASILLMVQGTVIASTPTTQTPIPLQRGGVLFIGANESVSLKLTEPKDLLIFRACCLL

[3] = target: Caspase-9 (Homo sapiens, UniProt P55211); test: inhibitors of purified CASP9 protease – biochemical, fluorescence, plate reader, cherry-picked samples, selectivity assay for caspase-6 inhibitor project, dose response (AID 743293)
[4] = target: Caspase-7 (Homo sapiens, UniProt P55210); test: caspase-7 enzyme inhibition, selectivity check – biochemical, DEVD-R110 fluorescence, cherry-pick, selectivity assay for caspase-6 inhibitor project, dose response (AID 743295); assay type: functional
[5] = target: T3, Apoptotic protease-activating factor 1 (Homo sapiens, UniProt O14727); assay type: functional
T3 sequence (O14727 whole entry): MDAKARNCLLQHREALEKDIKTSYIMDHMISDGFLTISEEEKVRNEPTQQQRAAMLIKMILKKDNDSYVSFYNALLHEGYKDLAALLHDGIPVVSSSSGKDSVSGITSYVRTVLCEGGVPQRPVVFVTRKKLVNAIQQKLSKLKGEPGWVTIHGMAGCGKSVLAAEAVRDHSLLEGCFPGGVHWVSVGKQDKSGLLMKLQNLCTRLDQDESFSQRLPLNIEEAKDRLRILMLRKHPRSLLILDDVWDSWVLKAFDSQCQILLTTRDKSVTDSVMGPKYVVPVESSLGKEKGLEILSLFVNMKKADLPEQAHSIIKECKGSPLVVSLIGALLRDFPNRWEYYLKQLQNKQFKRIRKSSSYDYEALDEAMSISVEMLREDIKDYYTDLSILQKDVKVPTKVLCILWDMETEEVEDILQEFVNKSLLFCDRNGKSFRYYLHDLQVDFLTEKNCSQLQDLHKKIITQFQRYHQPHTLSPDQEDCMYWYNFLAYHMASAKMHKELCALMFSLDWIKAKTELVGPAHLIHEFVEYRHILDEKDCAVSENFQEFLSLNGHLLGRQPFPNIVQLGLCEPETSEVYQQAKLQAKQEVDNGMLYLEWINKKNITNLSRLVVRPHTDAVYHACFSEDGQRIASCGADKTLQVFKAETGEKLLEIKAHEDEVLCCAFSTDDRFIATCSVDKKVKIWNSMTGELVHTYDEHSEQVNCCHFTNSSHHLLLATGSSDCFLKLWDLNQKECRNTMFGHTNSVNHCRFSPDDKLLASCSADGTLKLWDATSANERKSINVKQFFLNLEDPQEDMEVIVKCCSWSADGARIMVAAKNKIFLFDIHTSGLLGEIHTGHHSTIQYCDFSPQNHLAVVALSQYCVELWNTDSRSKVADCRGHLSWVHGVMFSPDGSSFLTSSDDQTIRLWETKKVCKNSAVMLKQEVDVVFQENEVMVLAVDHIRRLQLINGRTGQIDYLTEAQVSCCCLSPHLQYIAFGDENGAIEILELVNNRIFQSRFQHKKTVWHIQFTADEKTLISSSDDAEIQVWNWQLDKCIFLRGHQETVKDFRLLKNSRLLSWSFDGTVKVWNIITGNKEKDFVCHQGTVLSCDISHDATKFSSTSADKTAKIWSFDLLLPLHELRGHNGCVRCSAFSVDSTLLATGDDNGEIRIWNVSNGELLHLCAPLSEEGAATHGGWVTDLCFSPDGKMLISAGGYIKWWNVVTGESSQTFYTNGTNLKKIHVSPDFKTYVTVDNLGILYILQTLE

[6] = target: Caspase-8 (Homo sapiens, UniProt Q14790); test: inhibitors of purified CASP8 protease – biochemical, Z-IETD-R110 fluorescence, cherry-picked samples, selectivity assay for caspase-6 inhibitor project, dose response (AID 743294)
[7] = cells; conditions: HEK293
[8] = IC50 of insulin release inhibition, rat insulinoma INS-1E line, 5 mM glucose, cell-based (AID 1117331); assay type: functional
[9] = target: RNA-editing ligase 1, mitochondrial (Trypanosoma brucei brucei, UniProt P86926); test: inhibition of trypanosome RNA editing ligase – biochemical, fluorescence, Trypanosoma brucei, dose response (AID 1117295); assay type: functional
[10] = target: Genome polyprotein (dengue virus type 2, UniProt P29990); test: flavivirus cap methylation enzyme inhibition – biochemical, confirmation dose response, primary screen (AID 588689); assay type: functional
[11] = target: Induced myeloid leukemia cell differentiation protein Mcl-1 (Homo sapiens, UniProt Q07820); assay type: functional
[12] = target: Tyrosyl-DNA phosphodiesterase 2 (Homo sapiens, UniProt O95551); test: potency against TDP2 phosphodiesterase activity – biochemical, epi absorbance, IC50, dose response (AID 743297)
[13] = target: Glutathione-S-transferase (Schistosoma japonicum, UniProt Q26513); test: GST-antibody interaction or FRET quenching – biochemical, TR-FRET, artefact control for Vif-APOBEC3G degradation inhibitor project, dose response (AID 1117362); assay type: functional
[14] = target: T4, Fibrinogen beta chain (Homo sapiens, UniProt P02675); test: Fluorescence polarization-based biochemical high throughput dose response assay to identify inhibitors that disrupt the binding of a cyclic peptide (Tn6) to the fibrin proteolytic product D-Dimer and fragment E complex [DD(E )].
[15] = target: T4, Fibrinogen beta chain; test: Fluorescence polarization-based biochemical high throughput dose response assay to identify inhibitors that disrupt the binding of a cyclic peptide (Tn7) to the fibrin proteolytic product D-Dimer and fragment E complex [DD(E )].

T4 sequence (P02675 whole entry, the tested form may be a part): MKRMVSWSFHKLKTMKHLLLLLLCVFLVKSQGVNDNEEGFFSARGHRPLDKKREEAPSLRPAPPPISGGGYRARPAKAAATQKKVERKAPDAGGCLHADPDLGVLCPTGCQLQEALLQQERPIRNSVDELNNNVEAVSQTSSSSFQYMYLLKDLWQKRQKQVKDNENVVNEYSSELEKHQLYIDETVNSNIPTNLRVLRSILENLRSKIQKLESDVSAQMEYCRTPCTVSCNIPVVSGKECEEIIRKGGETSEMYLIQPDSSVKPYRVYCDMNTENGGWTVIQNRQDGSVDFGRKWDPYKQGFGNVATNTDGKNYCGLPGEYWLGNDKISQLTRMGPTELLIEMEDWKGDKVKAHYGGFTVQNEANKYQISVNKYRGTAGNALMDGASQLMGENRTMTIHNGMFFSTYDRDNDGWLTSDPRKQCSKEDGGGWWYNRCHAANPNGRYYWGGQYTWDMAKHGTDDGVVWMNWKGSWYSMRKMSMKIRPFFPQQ
Chain of Induced myeloid leukemia cell differentiation protein Mcl-1 (Q07820 whole entry): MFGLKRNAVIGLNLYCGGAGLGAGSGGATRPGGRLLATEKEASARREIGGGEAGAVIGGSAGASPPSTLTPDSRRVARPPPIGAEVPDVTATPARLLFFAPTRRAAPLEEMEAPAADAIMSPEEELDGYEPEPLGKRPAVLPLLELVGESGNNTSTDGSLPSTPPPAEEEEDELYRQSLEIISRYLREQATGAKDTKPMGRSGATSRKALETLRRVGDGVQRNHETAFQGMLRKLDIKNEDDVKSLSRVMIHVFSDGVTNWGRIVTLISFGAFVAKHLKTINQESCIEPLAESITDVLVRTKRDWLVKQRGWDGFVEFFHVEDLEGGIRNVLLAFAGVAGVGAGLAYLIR
Chain of RNA-editing ligase 1, mitochondrial (P86926 whole entry): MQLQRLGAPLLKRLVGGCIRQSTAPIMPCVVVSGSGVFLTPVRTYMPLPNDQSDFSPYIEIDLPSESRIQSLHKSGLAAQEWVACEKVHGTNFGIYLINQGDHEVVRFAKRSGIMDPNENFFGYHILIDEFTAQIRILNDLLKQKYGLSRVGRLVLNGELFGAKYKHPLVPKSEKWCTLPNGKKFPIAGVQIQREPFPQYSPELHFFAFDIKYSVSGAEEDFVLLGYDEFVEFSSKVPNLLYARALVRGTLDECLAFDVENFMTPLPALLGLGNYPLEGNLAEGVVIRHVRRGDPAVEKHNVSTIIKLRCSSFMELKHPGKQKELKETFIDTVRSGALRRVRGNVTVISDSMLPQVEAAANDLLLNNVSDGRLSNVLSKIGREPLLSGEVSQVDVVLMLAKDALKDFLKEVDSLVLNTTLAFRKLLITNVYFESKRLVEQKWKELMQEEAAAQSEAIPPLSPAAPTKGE
Chain of Caspase-8 (Q14790 217-374 limits assumed): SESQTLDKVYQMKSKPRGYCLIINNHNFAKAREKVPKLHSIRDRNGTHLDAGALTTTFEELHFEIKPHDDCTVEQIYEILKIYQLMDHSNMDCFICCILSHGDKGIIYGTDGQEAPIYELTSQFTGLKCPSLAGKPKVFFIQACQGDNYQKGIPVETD
Chain of Caspase-8 (Q14790 385-479 limits assumed): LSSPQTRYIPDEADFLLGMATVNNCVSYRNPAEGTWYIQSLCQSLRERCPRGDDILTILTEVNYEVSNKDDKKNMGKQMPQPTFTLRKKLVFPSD
Chain of Genome polyprotein (P29990 2492-3391 limits assumed): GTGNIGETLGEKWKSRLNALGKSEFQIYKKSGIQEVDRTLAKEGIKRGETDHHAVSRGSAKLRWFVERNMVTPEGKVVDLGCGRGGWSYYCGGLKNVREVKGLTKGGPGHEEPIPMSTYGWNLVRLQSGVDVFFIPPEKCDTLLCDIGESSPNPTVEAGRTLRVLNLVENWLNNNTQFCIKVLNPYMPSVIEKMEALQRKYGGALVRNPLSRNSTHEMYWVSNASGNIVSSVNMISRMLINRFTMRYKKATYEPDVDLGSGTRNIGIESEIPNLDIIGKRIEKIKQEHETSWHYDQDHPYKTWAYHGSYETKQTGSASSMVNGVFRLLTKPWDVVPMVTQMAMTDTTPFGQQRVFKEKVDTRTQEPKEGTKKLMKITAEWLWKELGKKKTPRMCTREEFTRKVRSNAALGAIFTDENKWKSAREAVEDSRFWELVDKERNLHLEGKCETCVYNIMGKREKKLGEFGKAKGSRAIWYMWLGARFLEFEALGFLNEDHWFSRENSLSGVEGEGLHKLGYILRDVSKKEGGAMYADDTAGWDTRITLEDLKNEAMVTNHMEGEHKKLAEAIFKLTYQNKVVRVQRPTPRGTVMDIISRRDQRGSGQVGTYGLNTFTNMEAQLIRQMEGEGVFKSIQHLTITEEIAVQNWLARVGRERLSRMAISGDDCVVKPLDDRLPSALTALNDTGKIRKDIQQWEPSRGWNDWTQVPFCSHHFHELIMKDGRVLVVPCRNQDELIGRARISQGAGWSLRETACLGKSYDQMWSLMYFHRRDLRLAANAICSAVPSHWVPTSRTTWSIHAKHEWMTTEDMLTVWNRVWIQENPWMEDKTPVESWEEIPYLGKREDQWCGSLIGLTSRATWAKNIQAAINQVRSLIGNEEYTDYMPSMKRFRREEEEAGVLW
Chain of Tyrosyl-DNA phosphodiesterase 2 (O95551 whole entry): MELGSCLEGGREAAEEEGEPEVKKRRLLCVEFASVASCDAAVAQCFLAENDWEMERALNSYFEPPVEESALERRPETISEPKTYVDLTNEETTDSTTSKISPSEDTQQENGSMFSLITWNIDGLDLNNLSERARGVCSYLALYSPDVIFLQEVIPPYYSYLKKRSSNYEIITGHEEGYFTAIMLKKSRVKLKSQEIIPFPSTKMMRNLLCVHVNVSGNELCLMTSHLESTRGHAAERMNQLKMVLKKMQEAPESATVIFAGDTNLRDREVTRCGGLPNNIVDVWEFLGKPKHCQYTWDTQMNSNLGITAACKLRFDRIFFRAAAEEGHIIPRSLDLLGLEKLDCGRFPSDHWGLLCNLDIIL
Chain of Caspase-7 (P55210 24-198 limits assumed): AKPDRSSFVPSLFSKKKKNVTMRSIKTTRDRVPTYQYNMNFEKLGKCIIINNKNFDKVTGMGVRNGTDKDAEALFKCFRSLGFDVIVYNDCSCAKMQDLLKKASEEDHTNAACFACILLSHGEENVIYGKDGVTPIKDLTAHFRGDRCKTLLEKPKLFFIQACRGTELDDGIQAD
Chain of Caspase-7 (P55210 207-303 limits assumed): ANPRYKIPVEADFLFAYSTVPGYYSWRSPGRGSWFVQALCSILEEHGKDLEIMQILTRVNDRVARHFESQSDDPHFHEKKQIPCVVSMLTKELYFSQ
Chain of Caspase-9 (P55211 1-315 limits assumed): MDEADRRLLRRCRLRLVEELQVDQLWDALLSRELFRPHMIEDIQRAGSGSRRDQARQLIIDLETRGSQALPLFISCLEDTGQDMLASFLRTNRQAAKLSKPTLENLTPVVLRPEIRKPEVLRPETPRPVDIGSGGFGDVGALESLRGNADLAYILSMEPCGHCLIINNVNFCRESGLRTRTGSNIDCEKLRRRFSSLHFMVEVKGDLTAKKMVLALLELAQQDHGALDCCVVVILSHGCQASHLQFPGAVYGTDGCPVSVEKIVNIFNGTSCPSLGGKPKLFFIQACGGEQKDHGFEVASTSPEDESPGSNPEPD
Chain of Caspase-9 (P55211 331-416 limits assumed): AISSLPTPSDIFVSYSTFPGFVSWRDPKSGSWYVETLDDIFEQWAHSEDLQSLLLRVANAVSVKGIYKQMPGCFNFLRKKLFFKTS
Chain of Glutathione-S-transferase (Q26513 whole entry, the tested form may be a part): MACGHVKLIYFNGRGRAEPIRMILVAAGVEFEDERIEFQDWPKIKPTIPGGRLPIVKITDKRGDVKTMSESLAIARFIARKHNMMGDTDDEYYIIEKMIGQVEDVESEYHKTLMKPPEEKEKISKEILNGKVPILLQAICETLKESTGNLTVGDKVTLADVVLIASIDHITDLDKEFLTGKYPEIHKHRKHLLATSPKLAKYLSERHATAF

For `CCOc1c(O)ccc(/C=C2\SC(=S)NC2=O)c1[N+](=O)[O-]`, the AC50 [1] was 4.1 µM (active), the IC50 [2] was > 50 µM (not active) and the AC50 [3] was 53.6 µM (active). The AC50 [4] was 25.5 µM (active), the IC50 [5] was 15.8 µM (active) and the AC50 [6] was > 70 µM (inactive).
For `COc1cc(C)ccc1OCCn1cnc2ccccc21`, the AC50 [7] was > 52 µM (inactive).
For `Nc1cc(N2CCCCC2)nc(N)[n+]1[O-]` [MINOXIDIL], the IC50 [8] was > 33.3 µM (inactive).
With `O=C(NCCCO)c1ccc2nc(-c3ccco3)c(-c3ccco3)nc2c1` the IC50 [9] was 28.4 µM (inactive), the IC50 [10] was 86.2 µM (active) and the AC50 [1] was 13.1 µM (active). For the same molecule, the IC50 [11] was 3.45 µM (not active), the IC50 [12] was > 128 µM (inactive) and the IC50 [13] was > 100 µM (active).
In the case of `O=C(COC(=O)c1cc(-c2cccc3ccccc23)nc2ccccc12)NC1CCS(=O)(=O)C1` (stereo unspecified), the IC50 [14] is reported as > 83.3 µM (inactive) and the IC50 [15] is reported as > 83.3 µM (inactive).

Reference: ChEMBL document CHEMBL1201862, “PubChem BioAssay data set” (2004)
